Earlier results on one compound are cited in patent publication US8932634B2, “Hydrocolloid carrier beads with inert filler material” (Yissum Research Development Company of the Hebrew …, priority 2006, dated 2015).

Where a name gives a salt, the structure may show the parent alone.

Consider `COc1ccc([C@@H]2Sc3ccccc3N(CCN(C)C)C(=O)[C@@H]2OC(C)=O)cc1` [Diltiazem hydrochloride], for which the solubility in water entry was “high”.
